The values that follow come from patent publication US12662470B2, “Hydroxy and (halo)alkoxy substituted tetrahydrofurans as modulators of sodium channels” (VERTEX PHARMACEUTICALS INCORPORATED, priority 2021, dated 2026).

The experiment concerns the target human NaV 1.8 (Homo sapiens, UniProt Q9Y5Y9). In words: E-VIPR Assay Detecting and Measuring NaV Inhibition Properties. The class given is cell-based. The note with it: HEK cells expressing a truncated form of human NaV 1.8. The text has this: Sodium ion channels are voltage-dependent proteins that can be activated by inducing membrane voltage changes by applying electric fields. The electrical stimulation instrument and methods of use, referred to as E-VIPR, are described in International Publication No. WO 2002/008748 A3 and C.-J. Huang et al. Characterization of voltage-gated sodium channel blockers by electrical stimulation and fluorescence detection of membrane potential, 24 Nature Biotech. 439-46 (2006), both of which are incorporated by reference in their entirety. The instrument comprises a microtiter plate handler, an optical system for exciting the coumarin dye while simultaneously recording the coumarin and oxonol emissions, a waveform generator, a current- or voltage-controlled amplifier, and parallel electrode pairs that are inserted into assay plate wells. Under integrated computer control, this instrument passes user-programmed electrical stimulus protocols to cells within the wells of the microtiter plate.
16-20 hours prior to running the assay on E-VIPR, HEK cells expressing a truncated form of human NaV 1.8 with full channel activity were seeded into microtiter 384-well plates, pre-coated with matrigel, at a density of 25,000 cells per well. 2.5-5% KIR2.1 Bacmam virus was added to the final cell suspension before seeding into cell plates. HEK cells were grown in Dulbecco's Modified Eagle's Medium (DMEM) supplemented with 10% FBS (Fetal Bovine Serum, qualified; Sigma #F4135), 1% NEAA (Non-Essential Amino Acids, Gibco #11140), 1% HEPES (Gibco #15630), 1% Pen-Strep (Penicillin-Streptomycin; Gibco #15140) and 5 μg/ml Blasticidin (Gibco #R210-01). Cells were expanded in vented cap cell culture flasks, with 90-95% humidity and 5% CO2.
Reagents and Stock Solutions:
• 100 mg/mL Pluronic F-127 (Sigma #P2443), in dry DMSO • Compound Plates: Corning 384-well Polypropylene Round Bottom #3656 • Cell Plates: 384-well tissue culture treated plates (Greiner #781091-2B)
2.5-5% KIR 2.1 Bacmam virus (produced in-house), prepared as described in Section 3.3 of J. A. Fornwald et al., Gene Expression in Mammalian Cells Using BacMam, a Modified Baculovirus System, 1350 Methods in Molecular Biology 95-116 (2016), the entire contents of which are incorporated by reference. The concentration used can be dependent on viral titer of each batch.
5 mM DiSBAC6(3), a voltage sensitive oxonol acceptor (CAS number 169211-44-3; 5-[3-(1,3-dihexylhexahydro-4,6-dioxo-2-thioxo-5-pyrimidinyl)-2-propen-1-ylidene]-1,3-dihexyldihydro-2-thioxo-4,6(1H,5H)-pyrimidinedione), in dry DMSO. The preparation of DiSBAC6(3) is analogous to that of DiSBAC4(3) as described in Voltage Sensing by Fluorescence Resonance Energy Transfer in Single Cells, Gonzalez, J. E. and Tsien, R. Y. (1995) Biophys. J. 69, 1272-1280.
5 mM CC2-DMPE, a commercially available membrane-bound coumarin phospholipid FRET donor (ThermoFisher Scientific catalog number K1017, CAS number 393782-57-5; tetradecanoic acid, 1,1′-[(1R)-1-[8-(6-chloro-7-hydroxy-2-oxo-2H-1-benzopyran-3-yl)-3-hydroxy-3-oxido-8-oxo-2,4-dioxa-7-aza-3-phosphaoct-1-yl]-1,2-ethanediyl] ester) was prepared in dry DMSO. See also, Improved indicators of cell membrane potential that use fluorescence resonance energy transfer, Gonzalez, J. E. and Tsien, R. Y. (1997) Chem. Biol. 4, 269-277.
Voltage Assay Background Suppression Compound (VABSC-1) is prepared in H2O (89-363 mM, range used to maintain solubility)
Human Serum (HS, Millipore #S1P1-01KL, or Sigma SLBR5469V and SLBR5470V as a 50%/50% mixture, for 25% assay final concentration)
• Sodium Chloride 160 mM (9.35 g/L), Potassium Chloride, 4.5 mM (0.335 g/L), Glucose 10 mM (1.8 g/L), Magnesium Chloride (Anhydrous) 1 mM (0.095 g/L), Calcium Chloride 2 mM (0.222 g/L), HEPES 10 mM (2.38 g/L) in water. […]

[1] abbreviates: compound number with "*": assay performed in the presence of human serum.
Where [2] appears, read: compound number without "*" (not marked as run in the presence of human serum).

Chain of human NaV 1.8 (Q9Y5Y9 126-1722 limits assumed): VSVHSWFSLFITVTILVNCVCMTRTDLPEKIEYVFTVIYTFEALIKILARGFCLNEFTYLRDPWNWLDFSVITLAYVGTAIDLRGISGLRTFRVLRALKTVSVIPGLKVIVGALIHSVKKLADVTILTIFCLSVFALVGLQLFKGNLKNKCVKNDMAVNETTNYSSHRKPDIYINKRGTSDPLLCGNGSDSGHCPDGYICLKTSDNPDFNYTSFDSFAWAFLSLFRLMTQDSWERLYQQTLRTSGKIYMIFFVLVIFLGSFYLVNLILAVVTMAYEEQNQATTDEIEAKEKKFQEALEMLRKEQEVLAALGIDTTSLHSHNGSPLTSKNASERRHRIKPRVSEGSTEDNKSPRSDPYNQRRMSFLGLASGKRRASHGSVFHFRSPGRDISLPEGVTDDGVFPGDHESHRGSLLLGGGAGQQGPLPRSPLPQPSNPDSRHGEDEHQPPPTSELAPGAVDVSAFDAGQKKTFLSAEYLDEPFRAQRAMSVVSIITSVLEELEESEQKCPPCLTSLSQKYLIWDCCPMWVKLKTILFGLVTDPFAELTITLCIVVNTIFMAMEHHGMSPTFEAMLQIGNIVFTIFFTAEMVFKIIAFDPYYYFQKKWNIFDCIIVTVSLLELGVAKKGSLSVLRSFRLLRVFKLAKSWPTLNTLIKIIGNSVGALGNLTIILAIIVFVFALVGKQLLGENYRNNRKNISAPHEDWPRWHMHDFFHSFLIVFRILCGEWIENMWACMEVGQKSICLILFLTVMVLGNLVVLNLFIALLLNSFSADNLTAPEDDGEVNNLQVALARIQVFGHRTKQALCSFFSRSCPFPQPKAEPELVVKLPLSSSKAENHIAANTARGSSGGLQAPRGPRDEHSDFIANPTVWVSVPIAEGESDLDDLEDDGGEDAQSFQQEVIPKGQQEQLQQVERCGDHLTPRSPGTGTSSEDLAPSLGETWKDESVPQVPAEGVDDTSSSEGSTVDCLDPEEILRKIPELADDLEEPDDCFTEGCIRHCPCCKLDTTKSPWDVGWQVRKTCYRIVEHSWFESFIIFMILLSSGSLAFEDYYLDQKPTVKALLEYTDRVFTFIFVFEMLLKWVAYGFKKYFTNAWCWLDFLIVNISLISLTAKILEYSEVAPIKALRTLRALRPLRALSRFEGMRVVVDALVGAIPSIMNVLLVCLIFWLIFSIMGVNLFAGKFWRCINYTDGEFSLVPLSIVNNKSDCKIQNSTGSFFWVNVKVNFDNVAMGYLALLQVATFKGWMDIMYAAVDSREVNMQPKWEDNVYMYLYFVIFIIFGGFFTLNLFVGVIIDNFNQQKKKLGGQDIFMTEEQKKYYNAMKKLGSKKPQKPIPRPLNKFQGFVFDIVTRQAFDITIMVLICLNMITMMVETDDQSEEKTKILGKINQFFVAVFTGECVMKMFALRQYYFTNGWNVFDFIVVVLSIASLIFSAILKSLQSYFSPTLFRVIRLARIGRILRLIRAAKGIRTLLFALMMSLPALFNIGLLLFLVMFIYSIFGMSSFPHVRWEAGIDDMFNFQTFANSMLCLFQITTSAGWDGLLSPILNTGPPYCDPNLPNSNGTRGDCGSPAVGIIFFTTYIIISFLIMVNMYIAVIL

As to `COc1c([C@@H]2[C@H](OC)[C@H](C)O[C@H]2C(=O)Nc2ccnc([C@@H](O)CO)c2)ccc(F)c1F` (single isomer, unassigned) [Compound 9, rel-(2R*,3R*,4S*,5S*)-3-(3,4-difluoro-2-methoxyphenyl)-N-(2-(1,2-dihydroxyethyl)pyridin-4-yl)-4-methoxy-5-methyltetrahydrofuran-2-carboxamide], the IC50 under setting [1] was ≥ 1 µM.
On the same count and under the same terms, the figure for `COc1c([C@@H]2[C@H](OC)[C@H](C)O[C@H]2C(=O)Nc2ccnc([C@H](O)CO)c2)ccc(F)c1F` (single isomer, unassigned) [Compound 10, rel-(2R*,3R*,4S*,5S*)-3-(3,4-difluoro-2-methoxyphenyl)-N-(2-(1,2-dihydroxyethyl)pyridin-4-yl)-4-methoxy-5-methyltetrahydrofuran-2-carboxamide] is ≥ 1 µM.
With `COc1c([C@@H]2[C@H](OC)[C@H](C)O[C@H]2C(=O)Nc2ccnc([C@@](C)(O)CO)c2)ccc(F)c1F` (single isomer, unassigned) [Compound 11, rel-(2R*,3R*,4S*,5S*)-3-(3,4-difluoro-2-methoxyphenyl)-N-(2-(1,2-dihydroxypropan-2-yl)pyridin-4-yl)-4-methoxy-5-methyltetrahydrofuran-2-carboxamide], the IC50 under setting [1] is ≥ 1 µM.
The same measure, in the same setting: for `COc1c([C@@H]2[C@H](OC)[C@H](C)O[C@H]2C(=O)Nc2ccnc([C@](C)(O)CO)c2)ccc(F)c1F` (single isomer, unassigned) [Compound 12, rel-(2R*,3R*,4S*,5S*)-3-(3,4-difluoro-2-methoxyphenyl)-N-(2-(1,2-dihydroxypropan-2-yl)pyridin-4-yl)-4-methoxy-5-methyltetrahydrofuran-2-carboxamide] the value was ≥ 1 µM; for `COc1c([C@H]2[C@H](C(=O)Nc3ccnc([C@@H](O)CO)c3)OC(C)(C)[C@H]2OC)ccc(F)c1F` (single isomer, unassigned) [Compound 20], 0.1 to 1 µM; for `COc1c([C@@H]2[C@@H](C(=O)Nc3ccnc([C@@H](O)CO)c3)OC(C)(C)[C@@H]2OC)ccc(F)c1F` (single isomer, unassigned) [Compound 21], ≥ 1 µM.
`COc1c([C@H]2[C@H](C(=O)Nc3ccnc([C@H](O)CO)c3)OC(C)(C)[C@H]2OC)ccc(F)c1F` (single isomer, unassigned) [Compound 22]: the 50% inhibitory concentration (IC50) under setting [1] lay in the range of 0.1 to 1 µM.
For `COc1c([C@@H]2[C@@H](C(=O)Nc3ccnc([C@H](O)CO)c3)OC(C)(C)[C@@H]2OC)ccc(F)c1F` (single isomer, unassigned) [Compound 23], under setting [1], the half-inhibitory concentration (IC50) was ≥ 1 µM.
For the compound `COc1c([C@H]2[C@H](C(=O)Nc3ccnc(C(N)=O)c3)OC(C)(C)[C@H]2OC)ccc(F)c1F` (stereo in doubt) [Compound 18, rel-4-((2R,3R,4S)-3-(3,4-difluoro-2-methoxyphenyl)-4-methoxy-5,5-dimethyltetrahydrofuran-2-carboxamido)picolinamide], the IC50 under setting [2] lay within 0.01 to 0.1 µM.
Turning to `COc1c([C@@H]2[C@@H](C(=O)Nc3ccnc(C(N)=O)c3)OC(C)(C)[C@@H]2OC)ccc(F)c1F` (stereo in doubt) [Compound 19, rel-4-((2S,3S,4R)-3-(3,4-difluoro-2-methoxyphenyl)-4-methoxy-5,5-dimethyltetrahydrofuran-2-carboxamido)picolinamide], the IC50 under setting [1] is ≥ 1 µM.
With `COc1c([C@H]2[C@H](C(=O)Nc3ccnc(C(N)=O)c3)O[C@@](C)(C(F)(F)F)[C@H]2OC)ccc(F)c1F` [Compound 1, 4-((2R,3R,4S,5R)-3-(3,4-difluoro-2-methoxyphenyl)-4-methoxy-5-methyl-5-(trifluoromethyl)tetrahydrofuran-2-carboxamido)picolinamide], the IC50 under setting [2] was < 0.01 µM.
The same measure, in the same setting: the figure for `COc1c([C@H]2[C@H](C(=O)Nc3ccnc(C(N)=O)c3)O[C@@](C)(C(F)(F)F)[C@H]2O)ccc(F)c1F` [Compound 2, 4-((2R,3R,4S,5R)-3-(3,4-difluoro-2-methoxyphenyl)-4-hydroxy-5-methyl-5-(trifluoromethyl)tetrahydrofuran-2-carboxamido)picolinamide] is 0.1 to 1 µM.
On the same count and under the same terms, for `COc1c([C@H]2[C@H](C(=O)Nc3ccnnc3)O[C@@](C)(C(F)(F)F)[C@H]2O)ccc(F)c1F` [Compound 3, (2R,3R,4S,5R)-3-(3,4-difluoro-2-methoxyphenyl)-4-hydroxy-5-methyl-N-(pyridazin-4-yl)-5-(trifluoromethyl)tetrahydrofuran-2-carboxamide] the value was ≥ 1 µM.
On to `COc1c([C@H]2[C@H](C(=O)Nc3ccnnc3)O[C@@](C)(C(F)(F)F)[C@H]2OC)ccc(F)c1C` [Compound 4, (2R,3R,4S,5R)-3-(4-fluoro-2-methoxy-3-methylphenyl)-4-methoxy-5-methyl-N-(pyridazin-4-yl)-5-(trifluoromethyl)tetrahydrofuran-2-carboxamide], for which, under setting [2], the IC50 is < 0.01 µM.
Still for that read-out and setting: the figure for `COc1c([C@H]2[C@H](C(=O)Nc3ccnc(C(N)=O)c3)O[C@@](C)(C(F)(F)F)[C@H]2OC)ccc(F)c1C` [Compound 5, 4-((2R,3R,4S,5R)-3-(4-fluoro-2-methoxy-3-methylphenyl)-4-methoxy-5-methyl-5-(trifluoromethyl)tetrahydrofuran-2-carboxamido)picolinamide] is < 0.01 µM.
For `COc1c([C@H]2[C@H](C(=O)Nc3ccc([C@@H](O)CO)nc3)O[C@@](C)(C(F)(F)F)[C@H]2OC)ccc(F)c1C` [Compound 6, (2R,3R,4S,5R)-N-(6-((R)-1,2-dihydroxyethyl)pyridin-3-yl)-3-(4-fluoro-2-methoxy-3-methylphenyl)-4-methoxy-5-methyl-5-(trifluoromethyl)tetrahydrofuran-2-carboxamide], the IC50 under setting [2] lay in the range of 0.01 to 0.1 µM.
Turning to `CO[C@H]1[C@@H](c2ccc(F)c(F)c2C)[C@H](C(=O)Nc2ccnc(C(N)=O)c2)O[C@@]1(C)C(F)(F)F` [Compound 7, 4-((2R,3R,4S,5R)-3-(3,4-difluoro-2-methylphenyl)-4-methoxy-5-methyl-5-(trifluoromethyl)tetrahydrofuran-2-carboxamido)picolinamide], under setting [2], the 50% inhibitory concentration (IC50) was < 0.01 µM.
On the same count and under the same terms, for `COc1c([C@@H]2[C@H](OC)[C@H](C)O[C@H]2C(=O)Nc2ccnc(C(N)=O)c2)ccc(F)c1F` [Compound 8, 4-((2R,3R,4S,5S)-3-(3,4-difluoro-2-methoxyphenyl)-4-methoxy-5-methyltetrahydrofuran-2-carboxamido)picolinamide] the value was 0.1 to 1 µM; for `CCO[C@H]1[C@@H](c2ccc(F)c(F)c2OC)[C@H](C(=O)Nc2ccnc(C(N)=O)c2)O[C@H]1C` [Compound 13, 4-((2R,3R,4S,5S)-3-(3,4-difluoro-2-methoxyphenyl)-4-ethoxy-5-methyltetrahydrofuran-2-carboxamido)picolinamide], 0.1 to 1 µM.
Turning to `COc1c([C@@H]2[C@H](OC(C)C)[C@H](C)O[C@H]2C(=O)Nc2ccnc(C(N)=O)c2)ccc(F)c1F` [Compound 14, 4-((2R,3R,4S,5S)-3-(3,4-difluoro-2-methoxyphenyl)-4-isopropoxy-5-methyltetrahydrofuran-2-carboxamido)picolinamide], the IC50 under setting [2] was in the range of 0.1 to 1 µM.
On the same count and under the same terms, the figure for `COc1c([C@@H]2[C@H](OC(C)C)[C@H](C)O[C@H]2C(=O)Nc2ccc(C(N)=O)nc2)ccc(F)c1F` [Compound 15, 5-((2R,3R,4S,5S)-3-(3,4-difluoro-2-methoxyphenyl)-4-isopropoxy-5-methyltetrahydrofuran-2-carboxamido)picolinamide] is ≥ 1 µM.
